Data reported in PMC9728092 (RSC Advances, 2022).

target: AChE (Homo sapiens, UniProt P22303); assay: AChE inhibitory assay in vitro; assay type: biochemical
Sequence (P22303 32-614): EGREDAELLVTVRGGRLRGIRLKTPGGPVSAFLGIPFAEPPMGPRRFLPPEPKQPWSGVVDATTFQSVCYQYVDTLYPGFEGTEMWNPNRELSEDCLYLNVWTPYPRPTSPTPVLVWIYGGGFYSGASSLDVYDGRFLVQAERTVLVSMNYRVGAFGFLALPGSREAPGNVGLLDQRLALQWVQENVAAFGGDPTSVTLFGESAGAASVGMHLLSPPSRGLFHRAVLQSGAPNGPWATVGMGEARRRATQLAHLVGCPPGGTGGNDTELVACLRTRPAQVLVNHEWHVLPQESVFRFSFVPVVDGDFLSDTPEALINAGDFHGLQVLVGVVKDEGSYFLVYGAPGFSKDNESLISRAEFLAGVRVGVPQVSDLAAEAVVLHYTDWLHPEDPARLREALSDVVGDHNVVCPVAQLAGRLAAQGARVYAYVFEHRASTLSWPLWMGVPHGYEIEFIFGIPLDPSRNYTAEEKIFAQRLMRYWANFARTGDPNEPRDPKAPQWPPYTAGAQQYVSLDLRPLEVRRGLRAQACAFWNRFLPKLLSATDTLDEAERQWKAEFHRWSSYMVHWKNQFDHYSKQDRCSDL

Row | SMILES | IC50
1 | O=c1c(O)c(-c2ccc(O)c(O)c2)oc2cc(O)cc(O)c12 [Compound 9, quercetin] | 3.96 ± 0.27 µM
2 | O=c1c(O)c(-c2ccc(O)cc2)oc2cc(O)cc(O)c12 [Compound 8, kaempferol] | 17.9 ± 0.18 µM
3 | O=C1c2c(O)cc(O)cc2O[C@H](c2ccc(O)cc2)[C@H]1O [Compound 10, dihydrokaempferol] | > 50 µM
